Experiments:
[1] = tested on: caspase-1; experiment: CASP1 activity in RPS19-edited model of DBA; type: cell-based, human; settings: 0.1 μM nilotinib (FIG. 14D)
Procedure: FIG. 14. Nilotinib promotes erythropoiesis in a human RPS19-edited model of DBA. RPS19 gene was edited in primary human CD34^+/CD133^+ cells with CRISPR-Cas9 technology and the cells were then differentiated with EPO for 13 days in the presence of absence of 0.1 μM nilotinib. (A) Representative flow cytometry dot plots of CD235-APC vs. CD71-FITC from control and RPS19-edited cells at 13 days of differentiation with EPO. (B) Cell surface expression of CD235A from control (mock) and RPS19-deficient cells treated with DMSO or nilotinib. (C) Percentage of mature erythrocytes (CD71^−/CD235A^+) vs. percentage of erythroid progenitors (CD71^+/CD235A^−) in RPS19-deficient cells treated with DMSO or 0.1 μM nilotinib. (D) CASP1 activity of control and RPS19-deficient cells treated with DMSO or 0.1 μM nilotinib. MFI, mean fluorescence intensity.

[2] = tested on: caspase-1; experiment: Caspase-1 activity assay in zebrafish larvae (Z-YVAD-AFC); type: in vivo, Zebrafish (Danio rerio H.)
Procedure: FIG. 6. NLRP1 is activated by phosphorylation of the linker domain after activation of ZAKα and pharmacological inhibition of this signaling pathway promotes erythropoiesis in DBA. (A-D) Number of neutrophils (A-C), and caspase-1 activity (D) in 2 dpf larvae obtained by injection of one-cell stage embryos with human NLRP1 (wild type-WT, S107A and S107D) and treated from 1 to 2 dpf by bath immersion with 1 μM nilotinib (B-D). Representative images of neutrophils (arrows) are also shown in C. (E, F) BMMCs from a DBA patient were incubated for 2 weeks in human methylcellulose complete medium at 37° C. in the presence or absence of the indicated concentrations of nilotinib, and colonies were counted using standard morphological criteria. Each dot represents one individual and the mean±SEM for each group is also shown. P values were calculated by one-way ANOVA and Tukey's multiple range test. n.s., non-significant; *P<0.05; **P<0.01; ***P<0.001; ****P<0.0001. […]
Caspase-1 activity was determined with the fluorometric substrate Z-YVAD 7-Amido-4-trifluoromethylcoumarin (Z-YVAD-AFC, caspase-1 substrate VI, Calbiochem). […] After incubation, the fluorescence of AFC released from the Z-YVAD-AFC substrate was measured with a FLUOstart spectrofluorometer (BGM, LabTechnologies) at an excitation wavelength of 405 nm and an emission wavelength of 492 nm.

Cc1cn(-c2cc(NC(=O)c3ccc(C)c(Nc4nccc(-c5cccnc5)n4)c3)cc(C(F)(F)F)c2)cn1 [nilotinib]
exacerbated caspase-1 activity of RPS19-deficient cells [1]: reduced to control levels
caspase-1 activation induced by NLRP1 with phosphomimetic S107D mutation ([2]; larvae expressing human NLRP1 S107D, 1 μM nilotinib 1 to 2 dpf): failed to reverse
caspase-1 activation induced by wild type NLRP1 ([2]; larvae expressing human wild type NLRP1, 1 μM nilotinib 1 to 2 dpf): able to abrogate

Source: patent US20260240846A1, “ZAK ALPHA KINASE (MAP3K20) INHIBITORS FOR USE IN THE TREATMENT OF ANEMIA” (UNIVERSIDAD DE MURCIA, priority 2023, published 2026)
